Results from patent US8729078B2, “Inhibitors of bruton's tyrosine kinase” (Hoffmann-La Roche Inc., priority 2011, dated 2014).

Legend:
Ramos cells = assay: Inhibition of B-cell activation, B cell FLIPR assay in Ramos cells (anti-IgM stimulated calcium increase); format: cell-based; conditions: Homo sapiens, anti-IgM stimulated Ca2+ signaling
Source text: Inhibition of B-Cell Activation—B Cell FLIPR Assay in Ramos Cells
The B cell FLIPR assay is a cell based functional method of determining the effect of potential inhibitors of the intracellular calcium increase from stimulation by an anti-IgM antibody. Ramos cells (human Burkitt's lymphoma cell line. ATCC-No. CRL-1596) were cultivated in Growth Media (described below). One day prior to assay, Ramos cells were resuspended in fresh growth media (same as above) and set at a concentration of 0.5×10^6/mL in tissue culture flasks. On day of assay, cells are counted and set at a concentration of 1×10^6/mLl in growth media supplemented with 1 μM FLUO-3AM (TefLabs Cat-No. 0116, prepared in anhydrous DMSO and 10% Pluronic acid) in a tissue culture flask, and incubated at 37° C. (4% CO2) for one h. To remove extracellular dye, cells were collected by centrifugation (5 min, 1000 rpm), resuspended in FLIPR buffer (described below) at 1×10^6 cells/mL and then dispensed into 96-well poly-D-lysine coated black/clear plates (BD Cat-No. 356692) at 1×10^5 cells per well. Test compounds were added at various concentrations ranging from 100 μM to 0.03 μM (7 concentrations, details below), and allowed to incubate with cells for 30 min at RT. Ramos cell Ca^2+ signaling was stimulated by the addition of 10 μg/mL anti-IgM (Southern Biotech, Cat-No. 2020-01) and measured on a FLIPR (Molecular Devices, captures images of 96 well plates using a CCD camera with an argon laser at 480 nm excitation).
Growth Medium: RPMI 1640 medium with L-glutamine (Invitrogen, Cat-No. 61870-010), 10% Fetal Bovine Serum (FBS, Summit Biotechnology Cat-No. FP-100-05); 1 mM Sodium Pyruvate (Invitrogen Cat. No. 11360-070).
FLIPR buffer: HBSS (Invitrogen, Cat-No. 141175-079), 2 mM CaCl2 (Sigma Cat-No. C-4901), HEPES (Invitrogen, Cat-No. 15630-080), 2.5 mM Probenecid (Sigma, Cat-No. P-8761), 0.1% BSA (Sigma, Cat-No. A-7906), 11 mM Glucose (Sigma, Cat-No. G-7528)
Compound Dilution Details:
In order to achieve the highest final assay concentration of 100 μM, 24 μL of 10 mM compound stock solution (made in DMSO) is added directly to 576 μL of FLIPR buffer. The test compounds are diluted in FLIPR Buffer (using Biomek 2000 robotic pipettor) resulting in the following dilution scheme: vehicle, 1.00×10^−4 M, 1.00×10^−5, 3.16×10^−6, 1.00×10^−6, 3.16×10^−7, 1.00×10^−7, 3.16×10^−8.
Intracellular increases in calcium were reported using a max-min statistic (subtracting the resting baseline from the peak caused by addition of the stimulatory antibody using a Molecular Devices FLIPR control and statistic exporting software. The IC50 was determined using a non-linear curve fit (GraphPad Prism software).

Btk = Btk (Homo sapiens (Human), UniProt Q06187); assay: Bruton's Tyrosine Kinase (Btk) inhibition assay (FRET BTK); format: biochemical
Chain of Btk (Q06187 whole entry): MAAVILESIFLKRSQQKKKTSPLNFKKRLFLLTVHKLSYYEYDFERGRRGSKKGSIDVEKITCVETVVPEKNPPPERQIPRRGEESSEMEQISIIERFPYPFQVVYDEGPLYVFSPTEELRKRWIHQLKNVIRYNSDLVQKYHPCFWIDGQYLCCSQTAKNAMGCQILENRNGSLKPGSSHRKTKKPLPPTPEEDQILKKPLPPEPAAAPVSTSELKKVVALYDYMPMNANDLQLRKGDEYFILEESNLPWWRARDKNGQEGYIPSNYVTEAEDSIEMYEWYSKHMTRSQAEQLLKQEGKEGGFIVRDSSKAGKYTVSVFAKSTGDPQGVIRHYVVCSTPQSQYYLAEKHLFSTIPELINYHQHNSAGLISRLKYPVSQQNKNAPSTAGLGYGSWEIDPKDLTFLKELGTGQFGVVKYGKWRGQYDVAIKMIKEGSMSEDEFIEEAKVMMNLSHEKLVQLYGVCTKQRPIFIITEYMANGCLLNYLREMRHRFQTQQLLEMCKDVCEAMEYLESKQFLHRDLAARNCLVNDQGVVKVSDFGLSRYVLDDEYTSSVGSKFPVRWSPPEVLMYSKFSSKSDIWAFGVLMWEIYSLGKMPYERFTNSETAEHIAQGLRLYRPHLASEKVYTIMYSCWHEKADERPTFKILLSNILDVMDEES

[1] = tested on: B cells in human whole blood (CD69 expression); assay: Inhibition of B cell activation in whole blood measured by CD69 expression; format: cell-based; conditions: anti-IgM stimulation, CD69-positive CD20-positive cells
Description: Inhibition of B Cell Activation in Whole Blood Measured by CD69 Expression
A procedure to test the ability of Btk inhibitors to suppress B cell receptor-mediated activation of B cells in human blood is as follows:
Human whole blood (HWB) is obtained from healthy volunteers, with the following restrictions: 24 hr drug-free, non-smokers. Blood is collected by venipuncture into Vacutainer tubes anticoagulated with sodium heparin. Test compounds are diluted to ten times the desired starting drug concentration in PBS (20×), followed by three-fold serial dilutions in 10% DMSO in PBS to produce a nine point dose-response curve. 5.5 μl of each compound dilution is added in duplicate to a 2 ml 96-well V bottom plate (Analytical Sales and Services, #59623-23); 5.5 μl of 10% DMSO in PBS is added to control and no-stimulus wells. HWB (100 μl) is added to each well, and after mixing the plates are incubated at 37 C, 5% CO2, 100% humidity for 30 minutes. Goat F(ab′)2 anti-human IgM (Southern Biotech, #2022-14) (10 μl of a 500 μg/ml solution, 50 μg/ml final concentration) is added to each well (except the no-stimulus wells) with mixing and the plates are incubated for an additional 20 hours.
At the end of the 20 hour incubation, samples are incubated with florescent-probe-labeled anti-bodies (15 μl PE Mouse anti-Human CD20, BD Pharmingen, #555623, and/or 20 ul APC Mouse anti-Human CD69, BD Pharmingen #555533) for 30 minutes, at 37 C, 5% CO2, 100% humidity. Included are induced control, unstained and single stains for compensation adjustments and initial voltage settings. Samples are then lysed with 1 ml of 1× Pharmingen Lyse Buffer (BD Pharmingen #555899), and plates are centrifuged at 1800 rpm for 5 minutes. Supernatants are removed via suction and the remaining pellets are lysed again with another 1 ml of 1× Pharmingen Lyse Buffer, and plates are spun down as before. Supernatants are aspirated and remaining pellets are washed in FACs buffer (PBS+1% FBS). After a final spin, the supernantants are removed and pellets are resuspended in 180 μl of FACs buffer. Samples are transferred to a 96 well plate suitable to be run on the HTS 96 well system on the BD LSR II flow cytometer.
Using appropriate excitation and emission wavelengths for the fluorophores used, data are acquired and percent positive cell values are obtained using Cell Quest Software. Results are initially analyzed by FACS analysis software (Flow Jo). […] The IC50 values are calculated using XLfit software version 3, equation 201.

| IC50 (Ramos cells) | IC50 (Btk) | IC50 [1] | Compound |
| --- | --- | --- | --- |
| 11200 nM | 50 nM | – | Cn1cc(-c2cccc(-n3ncc4cc(C(C)(C)C)ccc4c3=O)c2CO)nc1C(N)=O [Compound I-1, 4-[3-(6-tert-Butyl-1-oxo-1H-phthalazin-2-yl)-2-hydroxymethyl-phenyl]-1-methyl-1H-imidazole-2-carboxylic acid amide] |
| 1600 nM | 281 nM | – | CC(C)(C)c1ccc2c(=O)n(-c3cccc(-c4nc(C(N)=O)cs4)c3CO)ncc2c1 [Compound I-2, 2-[3-(6-tert-Butyl-1-oxo-1H-phthalazin-2-yl)-2-hydroxymethyl-phenyl]-thiazole-4-carboxylic acid amide] |
| 40 nM | 3.2 nM | 759 nM | CC(C)(C)c1cc(F)c2c(=O)n(-c3cccc(-n4cc(C(N)=O)c5cccnc54)c3CO)ncc2c1 [Compound I-15, 1-[3-(6-tert-Butyl-8-fluoro-1-oxo-1H-phthalazin-2-yl)-2-hydroxymethyl-phenyl]-1H-pyrrolo[2,3-b]pyridine-3-carboxylic acid amide] |
| 270 nM | 20 nM | 1430 nM | Cn1cc(-c2ccnc(-n3ncc4cc(C(C)(C)C)cc(F)c4c3=O)c2CO)cc1C(N)=O [Compound I-16, 4-[2-(6-tert-Butyl-8-fluoro-1-oxo-1H-phthalazin-2-yl)-3-hydroxymethyl-pyridin-4-yl]-1-methyl-1H-pyrrole-2-carboxylic acid amide] |
